Results: patent US8008452B2, “Phosphorylated Ndr kinase” (Novartis Forschungesstiftung, Zweigniederlassung Friedrich …, priority 2002, dated 2011)
“Also recorded” adds a separate entry of the source.

Experiments:
HA-NDR2 = HA-NDR2 protein kinase activity after cell treatment with okadaic acid or solvent; type: cell-based, human; details: for activation of NDR2 mutant by OA: cell treatment with OA; for basal kinase activity of NDR2 mutant: solvent alone, compared with HA-NDR2-WT
Description: All other procedures (including bacterial expression, kinase assays, immunodetection and mass spectrometry) were carried out essentially as described in the Methodology section above.
To further examine this NDR2 mutants were created in which either Ser-282 or Thr-442 were replaced by an alanine. Additionally an in vitro phosphorylation site mutant T75A essentially as described above, and a kinase dead mutant K119A was created for Ndr2. The protein kinase activity of each of these mutants was measured following cell treatment with okadaic acid (OA) or solvent alone. HA-NDR2-WT was potently stimulated (˜10-fold) by OA.

NDR2 = assay: Western blot of NDR2 variants with phosphorylation site specific antibodies; type: cell-based, human
Description: This was described above for the corresponding mutants of NDR1.

HA-NDR1 [1] = assay: Immunodetection of HA-NDR1 phosphorylated on Ser281 or Thr444 from COS-1 cells; type: cell-based, human; details: for phosphorylation of HA-NDR1 on Ser281: immunoblot with anti-P-S281; for phosphorylation of HA-NDR1 on Thr444: immunoblot with anti-P-T444
Description: Either 1 microgram GST-NDR1 or HA-NDR1 immunoprecipitated from 100 microgram COS-1 detergent extracts as described above was separated on 10% SDS-PAGE and immunoblotted 2 h at RT or overnight at 4° C. with anti-Ser281P antisera (1:1000) in the presence of 50 microg/ml competing unphosphopeptide or anti-Thr444P purified antibody (1:500). Both antibodies were detected with horseradish peroxidase-conjugated donkey anti-rabbit Ig antibody (Amersham biosciences) and developed by ECL (chemiluminescence; Amersham Pharmacia Biotech).
To examine this possibility, extracts from transfected COS-1 cells were analyzed with the anti-Ser281P and anti-Thr444P antisera. Protein extracts (10 microg) from transfected COS-1 cells were immunoblotted with 12CA5 to verify similar expression levels of each HA-NDR1 construct. For the analysis of phosphorylation status, 12CA5-immunoprecipitated HA-NDR1 variants (out of 100 microg protein extract) were analysed by immunoblotting with phosphospecific antibodies directed against P-S281 or P-T444.
Protein extracts (10 microg) from mock- and HA-NDR1-transfected COS-1 cells were also immunoblotted with 12CA5 to verify equal expression levels of HA-NDR1 construct. For the analysis of phosphorylation status, 12CA5-immunoprecipitated HA-NDR1 (out of 100 microgram protein extract) was analysed by immunoblotting with phosphospecific antibodies directed against P-S281 or P-T444.

HA-NDR1 [2] = assay: HA-NDR1 kinase assay on 12CA5 immunoprecipitates from transfected, treated COS-1 cells; type: cell-based, human; design: dose or concentration left out as unconfirmed
myc-hMOB1 = assay: Co-immunoprecipitation of HA-NDR and myc-hMOB1 from COS-1 cells; type: binding, human; details: COS1 cells cotransfected with HA-NDR and myc-hMOB1
Description: HA-tagged hNDR and myc-tagged hMOB1 were cotransfected in COS1 cells, which were stimulated with okadaic acid or solvent alone. After cell lysis and extract preparation, HA-NDR was immunoprecipitated and co-immunoprecipitated myc-hMOB1 detected or Myc-hMOB1 was immunoprecipitated and co-immunoprecipitated HA-NDR detected.
HA-NDR, wt and mutants, and myc-hMOB1 were cotransfected into COS-1 cells and the cells were treated with OA prior to lysis. HA-NDR was immunoprecipitated and the coimmunoprecipitated myc-hMOB1 detected. […] Furthermore, the two important in vivo phosphorylation sites of NDR, serine-281 in the activation segment and the hydrophobic motif site threonine-444 in the C-terminal regulatory domain were tested, as well as the threonine 74 site in the N-terminal regulatory domain, for their role in NDR-MOB interaction.
HA-NDR N-terminal point mutants and myc-mob1 were co-transfected into COS1 cells which were treated with OA prior to lysis. HA-NDR mutants were immunoprecipitated and coimmunoprecipitated myc-hMOB1 detected.
In this Example, the effect of treatment of COS1 cells with BAPTA-AM on the NDR-MOB Interaction was determined. HA-NDR and myc-MOB1 was cotransfected into COS1 cells and the cells were treated with BAPTA-AM and OA or the solvents alone prior to lysis. HA-NDR was immunoprecipitated and co-immunoprecipitated myc-MOB1 detected. The kinase activity of the HA-NDR immunoprecipitates was measured in a peptide kinase assay.

HA-NDR1 [3] = assay: HA-NDR1 kinase assay on 12CA5 immunoprecipitates from transfected, treated COS-1 cells; type: cell-based, human
Description: In some experiments, the cells were treated for 60 min with 1 microM okadaic acid in 0.1% N,N-dimethylformamide (DMF) (Alexis Corp.), 50 microM BAPTA-AM (1,2-bis (o-aminophenoxy) ethane-N,N,N′,N′-tetraacetic acid tetra (acetoxy-methyl)ester) in 0.1% diimethylsulfoxide (DMSO; Sigma), or 20 microM thapsigargin in 0.1% DMSO (Alomone) 24 hours after transfection.
Transfected and treated COS-1 cells were washed once with ice-cold PBS, and harvested by rubber policeman in 1 ml ice-cold PBS containing 1 mM Na3VO4 and 20 mM beta-glycerophosphate before lysis in 500 microliters of IP buffer (20 mM Tris-HCl pH 8.0, 150 mM NaCl, 1% Nonidet P-40, 10% glycerol, 1 mM Na3VO4, 20 mM beta-glycerolphosphate, 1 microM microcystin-LR, 50 mM NaF, 0.5 mM PMSF, 4 microM leupeptin, 1 mM benzamidine, and 1 tablet/10 ml IP of Complete protease inhibitors (Roche)). Lysates were centrifuged at 20 000 g for 20 min and triplicate aliquots (200 microg) of supernatant were precleared with protein A-Sepharose (Amersham Pharmacia Biotech) for 60 min and mixed subsequently for 3 h at 4° C. with 12CA5 antibody prebound to protein A-Sepharose (˜1 microg antibody bound to 2 microl beads). The beads were then washed twice with IP buffer, once for 10 min with IP buffer containing 1 M NaCl, once again for 10 min with IP buffer, and finally twice with 20 mM Tris-HCl pH 7.5 containing 4 microM leupeptin and 1 mM benzamidine. Thereafter, beads were resuspended in 30 microliters buffer containing 20 mM Tris-HCl pH 7.5, 10 mM MgCl2, 1 mM DTT, 100 microM [gamma-^32P]ATP (˜0.1 microCi/microliter), 1 microM cAMP-dependent protein kinase inhibitor peptide PKI (Bachem), 4 microM leupeptin, 1 mM benzamidine, 1 microM microcystin-LR, and 1 mM NDR1 substrate peptide ([…]). After 60 min incubation at 30° C., 15 microliters of supernatant were removed, and phosphate incorporation into the substrate peptide determined as described for GST-NDR1 above.
COS-1 cells expressing either wild type HA-NDR1 or the indicated mutants were treated for 1 h with 1 microM okadaic acid or with solvent alone. HA-tagged NDR kinase variants were then immunoprecipitated (out of 100 microgram of detergent extracts) with 12CA5 monoclonal antibody and assayed for kinase activity by a peptide kinase assay as described above.
Mock-transfected or HA-NDR1-expressing COS-1 cells were treated for 1 h with […], 50 microM BAPTA-AM, and […] or with solvent (0.1% DMF or 0.1% DMSO) alone. 12CA5 immunoprecipitates (out of 100 microgram protein extract) were then assayed using the peptide kinase assay for NDR1 kinase activity.
To test whether hMOB1 plays a role in NDR activation, myc-hMOB1 or the empty vector was cotransfected with HA-NDR1 in COS1 cells and treated with OA. 12CA5 immunoprecipitates were then assayed using the peptide kinase assay for HA-NDR kinase activity. […] GST-MOB and GST respectively was added to immunoprecipitated HA-NDR and kinase reaction were performed. The reactions were resolved on a 10% SDS PAGE and the radioactivity visualised by using a phosphoimager.

Compound | activation of NDR2 mutant by OA (HA-NDR2) | basal kinase activity of NDR2 mutant (HA-NDR2) | phosphorylation of NDR2 on Ser282 (NDR2) | phosphorylation of NDR2 on T442 upon OA treatment (NDR2) | phosphorylation of HA-NDR1 on Ser281 (HA-NDR1 [1]) | phosphorylation of HA-NDR1 on Thr444 (HA-NDR1 [1]) | effect on okadaic acid-stimulated NDR1 activity (HA-NDR1 [2]) | effect of cell treatment on NDR-MOB interaction (myc-hMOB1) | stimulation of HA-NDR2-WT kinase activity (HA-NDR2; cell treatment with OA versus solvent alone) [fold] | Spec. Activity (NDR1 kinase activity) (HA-NDR1 [3]) | increase of Ser282 phosphorylation after OA treatment (NDR2)
K119A: NDR2 kinase dead mutant K119A | didn't show any activation by OA | nearly undetectable levels | not phosphorylated on S282 | becomes phosphorylated upon OA treatment |  |  |  |  |  |  | 
S282A: NDR2 mutant, Ser-282 replaced by alanine | still activated | markedly reduced basal activity |  | becomes phosphorylated upon OA treatment |  |  |  |  |  |  | 
C/C=C(/C)C(=O)O[C@H]1C(C)=C2[C@H]([C@@H]1OC(=O)CCCCCCC)[C@@](C)(OC(C)=O)C[C@H](OC(=O)CCC)[C@@]1(O)[C@H]2OC(=O)[C@@]1(C)O [thapsigargin] |  |  |  |  | rescued | rescued | rescued |  |  |  | 
C=C1[C@@H](O)[C@@H]2O[C@]3(CC[C@H](/C=C/[C@@H](C)[C@@H]4CC(C)=C[C@@]5(O[C@H](C[C@@](C)(O)C(=O)O)CC[C@H]5O)O4)O3)CC[C@H]2O[C@@H]1[C@@H](O)C[C@H](C)[C@H]1O[C@@]2(CCCCO2)CC[C@H]1C [okadaic acid, reference compound] |  |  |  |  | further enhanced | only became phosphorylated after okadaic acid treatment |  | dependent on stimulation of the cells with OA | ~10 | 10.142 | 
CC(=O)OCOC(=O)CN(CC(=O)OCOC(C)=O)c1ccccc1OCCOc1ccccc1N(CC(=O)OCOC(C)=O)CC(=O)OCOC(C)=O [BAPTA-AM, 1,2-bis (o-aminophenoxy) ethane-N,N,N′,N′-tetraacetic acid tetra (acetoxy-methyl)ester] |  |  |  |  | declined almost to the baseline | declined almost to the baseline | dramatically reduced; also recorded: reduces OA induced NDR kinase activation | reduction of the NDR-MOB interaction |  | 0.2676 | 
NDR2 wt: human NDR2 wild type (SEQ ID NO:3), HA-tagged |  |  | becomes phosphorylated on Ser282 | becomes phosphorylated upon OA treatment |  |  |  |  |  |  | increased after OA treatment
T75A: NDR2 in vitro phosphorylation site mutant T75A | still activated | markedly reduced basal activity | becomes phosphorylated on Ser282 | becomes phosphorylated upon OA treatment |  |  |  |  |  |  | 
T442A: NDR2 mutant, Thr-442 replaced by alanine | still activated | markedly reduced basal activity | becomes phosphorylated on Ser282 |  |  |  |  |  |  |  | increased after OA treatment
